Source: patent publication US9090610B2, “Fluoroalkyl-substituted pyrazolopyridines and use thereof” (BAYER INTELLECTUAL PROPERTY GMBH, priority 2011, dated 2015)
pIC50: −log10 of the molar value.

Legend:
[1] = system: recombinant guanylate cyclase reporter cell line; test: Effect on a recombinant guanylate cyclase reporter cell line; assay type: cell-based; settings: recombinant guanylate cyclase reporter cell line (Wunder et al. 2005); read-out: MEC (minimum effective concentration)
Procedure: B-2. Effect on a Recombinant Guanylate Cyclase Reporter Cell Line
The cellular activity of the compounds according to the invention is determined using a recombinant guanylate cyclase reporter cell line, as described in F. Wunder et al., Anal. Biochem. 339, 104-112 (2005).

rabbit aorta rings = test: Vasorelaxant action in vitro (phenylephrine-contracted rabbit aortic rings); settings: Oryctolagus cuniculus, phenylephrine-induced contraction, organ bath 37° C., 0.1% DMSO, read-out: IC50 (concentration needed to reduce the magnitude of the control contraction by 50%)
Procedure: B-1. Vasorelaxant Action In Vitro
Rabbits are stunned by a blow to the neck and exsanguinated. The aorta is removed, freed from adhering tissue and divided into rings of a width of 1.5 mm. The rings are placed individually under an initial tension in 5 ml organ baths with Krebs-Henseleit solution which is at 37° C., is gassed with carbogen and has the following composition (in each case mM): sodium chloride: 119; potassium chloride: 4.8; calcium chloride dihydrate: 1; magnesium sulfate heptahydrate: 1.4; potassium dihydrogenphosphate: 1.2; sodium bicarbonate: 25; glucose: 10. The contractile force is determined with Statham UC2 cells, amplified and digitalized using A/D transducers (DAS-1802 HC, Keithley Instruments Munich), and recorded in parallel on linear recorders. To obtain a contraction, phenylephrine is added to the bath cumulatively in increasing concentration. After several control cycles, the substance to be investigated is added in each further run in increasing dosage in each case, and the height of the contraction achieved is compared with the height of the contraction reached in the last preceding run. This is used to calculate the concentration needed to reduce the magnitude of the control value by 50% ([…]). The standard administration volume is 5 μl; the DMSO content in the bath solution corresponds to 0.1%.

CC1(C)C(=O)Nc2nc(-c3nn(CCC(F)(F)C(F)(F)F)c4ncccc34)nnc21 [Example 1, 7,7-Dimethyl-3-[1-(3,3,4,4,4-pentafluorobutyl)-1H-pyrazolo[3,4-b]pyridin-3-yl]-5,7-dihydro-6H-pyrrolo[2,3-e][1,2,4]triazin-6-one]
minimal effective concentration [1]: 0.3 µM | pIC50 (rabbit aorta rings): 6.58

CC1(C)C(=O)Nc2nc(-c3nn(CCC(F)(F)C(F)(F)F)c4ncc(F)cc34)nnc21 [Example 2, 3-[5-Fluoro-1-(3,3,4,4,4-pentafluorobutyl)-1H-pyrazolo[3,4-b]pyridin-3-yl]-7,7-dimethyl-5,7-dihydro-6H-pyrrolo[2,3-e][1,2,4]triazin-6-one]
minimal effective concentration [1]: 0.1 µM | pIC50 (rabbit aorta rings): 6.89

CC1(C)C(=O)Nc2nc(-c3nn(CCC(F)(F)C(F)(F)F)c4ncccc34)ncc21 [Example 3, 5,5-Dimethyl-2-[1-(3,3,4,4,4-pentafluorobutyl)-1H-pyrazolo[3,4-b]pyridin-3-yl]-5,7-dihydro-6H-pyrrolo[2,3-d]pyrimidin-6-one]
minimal effective concentration [1]: 0.03 µM | pIC50 (rabbit aorta rings): 7.34

CC1(C)C(=O)Nc2nc(-c3nn(CCC(F)(F)C(F)(F)F)c4ncc(F)cc34)ncc21 [Example 4, 2-[5-Fluoro-1-(3,3,4,4,4-pentafluorobutyl)-1H-pyrazolo[3,4-b]pyridin-3-yl]-5,5-dimethyl-5,7-dihydro-6H-pyrrolo[2,3-d]pyrimidin-6-one]
minimal effective concentration [1]: 0.03 µM | pIC50 (rabbit aorta rings): 7.00

CC1(C)C(=O)Nc2nc(-c3nn(CC4CCCC4)c4ncc(F)cc34)ncc21 [Example 5, 2-[1-(Cyclopentylmethyl)-5-fluoro-1H-pyrazolo[3,4-b]pyridin-3-yl]-5,5-dimethyl-5,7-dihydro-6H-pyrrolo[2,3-d]pyrimidin-6-one]
minimal effective concentration [1]: 0.1 µM | pIC50 (rabbit aorta rings): 7.64

CC1(C)C(=O)Nc2nc(-c3nn(CC4CCCC4)c4ncc(F)cc34)nnc21 [Example 6, 3-[1-(Cyclopentylmethyl)-5-fluoro-1H-pyrazolo[3,4-b]pyridin-3-yl]-7,7-dimethyl-5,7-dihydro-6H-pyrrolo[2,3-e][1,2,4]triazin-6-one]
minimal effective concentration [1]: 0.1 µM | pIC50 (rabbit aorta rings): 6.99

CC1(C)C(=O)Nc2nc(-c3nn(CCC(F)(F)C(F)F)c4ncc(F)cc34)nnc21 [Example 7, 3-[5-Fluoro-1-(3,3,4,4-tetrafluorobutyl)-1H-pyrazolo[3,4-b]pyridin-3-yl]-7,7-dimethyl-5,7-dihydro-6H-pyrrolo[2,3-e][1,2,4]triazin-6-one]
minimal effective concentration [1]: 0.3 µM

CC1(C)C(=O)Nc2nc(-c3nn(CC4CC(F)(F)C4)c4ncc(F)cc34)nnc21 [Example 8, 3-{1-[(3,3-Difluorocyclobutyl)methyl]-5-fluoro-1H-pyrazolo[3,4-b]pyridin-3-yl}-7,7-dimethyl-5,7-dihydro-6H-pyrrolo[2,3-e][1,2,4]triazin-6-one]
minimal effective concentration [1]: 3 µM
